Like-named read-outs stand apart in the source and are kept apart here.
Tests used:
NK cells = assay: Example 5: NK cell viability and cytotoxic effector functions; type: cell-based, human
Experimental: Density centrifugation using a Ficoll-Hypaqua gradient was performed to purify PBMCs from continuous-flow centrifugation leukapheresis product. Subsequently, cells were plated in 96-well U-bottom plated in complete RPMI, which was supplemented with 10 ng/ml recombinant IL-15 (R&D systems), treated with LRAs or vehicle controls (DMSO) and incubated at 37° C., 5% CO2 for 48 h. To assay NK cell functionality, cells were analyzed by flow cytometry. Briefly, 1×10^6 cells/200 ul were stained with FITC anti-CD107 antibodies (1:50, BD Biosciences), mixed with 1×10^5 K562 cells and incubated at 37° C., 5% CO2 for 1 h. Then, in order to enhance intracellular cytokine staining, protein transport was blocked with Brefeldin A (Sigma-Aldrich) and golgi stop (BD Biosciences) according to the manufacturer instructions and the cells were incubated at 37° C., 5% CO2 for another 5 h. Afterwards, cells were spun down (5 min, 330×g, RT), the supernatant was removed and the cells were stained using Zombie violet (1:50, Biolegend) according to the manufacturer protocol. Subsequently, cells were stained for surface proteins staining with the following antibodies: APC/Cy7 anti CD3 (1:100, Biolegend), APC anti CD14 (1:100, Biolegend), APC anti CD19 (1:100, Biolegend), PE/Cy7 anti CD56 (1:100, BD Biosciences), Alexa Fluor 700 anti CD16 (1:100, Biolegend), PE anti CD7 (1:50, Thermo Fisher Scientific) for 15 min at room temperature. Next, cells were permeabilized and fixed using the Foxp3/Transcription Factor Fixation/Permeabilization Concentrate and Diluent kit (eBioscience) and stained intracellularly with PerCP/Cy5 anti IFN-γ (1:50, BD Bioscience) in FOXP3 perm/wash buffer for 1 h at 4° C. Finally, cells were washed and fixed in 1% paraformaldehyde/PBS, and subjected to flow cytometry analysis on a LSRII (BD Biosciences). Data were obtained using FlowJo software (Treestar). Samples were gated for singlets, live, CD3 negative, CD14/CD19 negative and CD7 positive cells as previously described (York, Milush). CD16high/CD56dim, CD16dim/CD56high cells were considered for analysis of IFN-γ and CD107a positivity. All gates were defined, based on fluorescence minus one (FMO) samples.

[1] = cited from earlier work
[2] = system: HIV-specific CD8+ T cells; assay: Example 5: granzyme B cytotoxicity assay and infected CD4+ T-cell elimination (ICE); type: cell-based, human; details: 1 μM for 6 days
Experimental: PBMCs were co-incubated with HIVSF162-infected autologous CD4^+ T-cell targets (E:T 25:1)+/−tideglusib at a final concentration of […] in 96 deep (1 mL) well plates for 6 days. As before, cultured day 6 cells were then labeled with immuno-magnetic beads (CD8 T-cell Isolation Kit II, Miltenyi Biotec) prior to negative selection of CD8^+ T-cells by magnetic automated cell sorting (ref Migueles et al., 2008, 2009). Cytotoxic responses were measured against LIVE/DEAD Fixable Violet Stain (Molecular Probes, Invitrogen Detection Technologies, Eugene, Oreg., USA)-labeled HIVSF162-infected or uninfected autologous CD4^+ T-cell targets in assays examining GrB target cell activity and infected CD4^+ T-cell elimination (ICE) as previously reported (ref Migueles et al., 2008, 2009). Cells were analyzed on a FACSAria multi-laser cytometer (Becton-Dickinson) with FACSDiva software. Gates were drawn on labeled CD4^+ T-cell targets and 5,000-15,000 events were collected. Color compensations were performed using single-stained samples for each of the fluorochromes used. Data were analyzed using FlowJo software (TreeStar, San Carlos, Calif.).

NF-κB (p65) = assay: Example 5: NF-κB p65 nuclear translocation, western blot of nuclear extracts; type: cell-based, human; details: 1 μM tideglusib or anti-CD3/CD28 coated beads; CD4+ T cells of three HIV-negative participants
Experimental: Nuclear extracts were prepared from purified CD4^+ T cells using the NE-PER Nuclear and Cytoplasmic Extraction reagent supplemented with protease inhibitor cocktail, as specified by the manufacturers protocol (Thermoscientific, catalogue no. 78833). Protein concentration of extracts was determined by Biorad protein assay (Biorad, catalogue no. 5000001). Nuclear extracts were resolved by electrophoresis on a 10% SDS-polyacrylamide gel using 15 μg of protein per condition and then transferred to PVDF membrane. Membranes were immunoblotted with primary antibodies for p65 (Cell signal Tech., catalogue no. 8242) and TATA binding protein (Abcam, catalogue no. ab63766); primary antibodies were diluted at 1:1000. Detection of primary antibodies was achieved by incubation with HRP conjugated secondary antibody. Bands were visualized by chemiluminescent detection using Immobilon Forte Western HRP ECL substrate (Millipore, catalogue no. WBLUF0100) followed by exposure to hyperfilm ECL (GE/Amersham, catalogue no. 45001508).

CD4+ T cells = assay: Example 5: cytokines release assay (V-PLEX pro-inflammatory panel); type: cell-based, human; details: 48 hours; culture supernatant of CD4+ T cells
Experimental: Supernatant was collected from the treated cell cultures described above and stored at −80° C. for later analysis. Supernatant cytokine levels were determined using a V-PLEX Proinflammatory Panel 1 (human) Kit (#K15049D-1) and a V-PLEX IL-17A Gen. B (human) (#K151WMD) from Meso Scale Discovery, following the manufacturer's protocol. The assay was done on undiluted supernatant samples in order to increase the sensitivity of the assay.

[3] = also in the brain; cited from earlier work
[4] = pre-treatment 1 μM 48 hours, then K562 cells

O=c1sn(-c2cccc3ccccc23)c(=O)n1Cc1ccccc1 [Tideglusib, 4-benzyl-2-(naphthalen-1-yl)-1,2,4-thiadiazolidine-3,5-dione]
viability of NK cells (NK cells; 48 hours): did not reduce viability
IFN-γ production in NK cells (NK cells; [4]): increase in IFN-γ production
increase of surface expression of CD107a in NK cells (NK cells; [4]): less marked
side effects / tolerability in humans [1]: safe (i.e., non-toxic) and well tolerated in humans
side effects / tolerability in humans ([1]; listed as tideglusib): very low incidence of side-effects
moderate, asymptomatic and fully reversible increase of transaminase, share of cases ([1]; prolonged treatment): 30%
CD8+ T-mediated infected CD4+ T-cell elimination (ICE) ([2]; 1 hour with infected CD4+ T targets): did not alter production of granzyme B (GrB) or prevent CD8^+ T-mediated infected CD4^+ T-cell elimination (ICE)
production of granzyme B (GrB) ([2]; PBMCs of HIV-positive progressors): did not alter production of granzyme B
time of peak p65 nuclear translocation (NF-κB (p65)): 60 min
production and release of pro-inflammatory cytokines (CD4+ T cells): does not induce T cell activation or cytokine production
tissue-permeability [3]: high tissue-permeability also in the brain

Reference: patent US11590110B2, “Compositions and methods for reactivating latent immunodeficiency virus using a GSK-3 inhibitor” (priority 2017, dated 2023)
